According to ChEMBL document CHEMBL3232942, “Benzophenone C-glucosides and gallotannins from mango tree stem bark with broad-spectrum anti-viral activity” (Bioorg Med Chem, 2014):
Calls of active or inactive are those of the source. The rule behind the calls is not given here.

Assays:
[1] = molecular target: Genome polyprotein (Coxsackievirus B3 (strain Nancy)) (UniProt P03313); test: Inhibition of His-6-tagged Coxsackievirus B3 3C protease expressed in Escherichia coli BL21(DE3) using Asp-Glu-EDANS-(5-((2-aminoethyl)amino)naphthalene-1-sulfonic acid)-MSAIFQGPISK-DABCYL (4-((4-(dimethylamino)phenyl)azo)benzoic acid) as peptide substrate at 100 uM by fluorescence-based […] assay
Neuraminidase = Neuraminidase (Influenza A virus, UniProt Q194T1); test: Inhibition of Influenza A virus (A/RI/5+/1957(H2N2)) recombinant neuraminidase using MUNANA as substrate after 30 mins
Genome polyprotein = Genome polyprotein (Coxsackievirus B3 (strain Nancy), UniProt P03313); test: Inhibition of His-6-tagged Coxsackievirus B3 3C protease expressed in Escherichia coli BL21(DE3) using Asp-Glu-EDANS-(5-((2-aminoethyl)amino)naphthalene-1-sulfonic acid)-MSAIFQGPISK-DABCYL (4-((4-(dimethylamino)phenyl)azo)benzoic acid) as peptide substrate by fluorescence-based […] assay
HepG2 = test: Cytotoxicity against human HepG2 cells assessed as cell viability after 48 hrs by MTT assay; assay type: cell-based; conditions: HepG2, 48 h
HeLa = test: Cytotoxicity against human HeLa cells assessed as cell viability after 48 hrs by MTT assay; assay type: cell-based

Row | Compound | inhibition [1] | other results
1 | COc1cc(O)c(C(=O)c2ccc(O)cc2)c(O)c1[C@@H]1O[C@H](CO)[C@@H](O)[C@H](O)[C@H]1OC(=O)c1cc(O)c(O)c(O)c1 | 53.8% | –
2 | O=C(O)c1cc(O)c(O)c(O)c1 | inactive | –
3 | O=c1c2cc(O)c(O)cc2oc2cc(O)c([C@@H]3O[C@H](CO)[C@@H](O)[C@H](O)[C@H]3O)c(O)c12 | 21.4% | –
4 | O=C(O[C@@H]1O[C@H](CO)[C@@H](O)[C@H](O)[C@H]1O)c1cc(O)c(O)c(O)c1 | 23.6% | –
5 | CO[C@@H]([C@@H]1OC(C(=O)O)=C[C@H](NC(=N)N)[C@H]1NC(C)=O)[C@H](O)CO | – | IC50 (Neuraminidase): 3.1 µM
6 | CCOC(=O)C1=C[C@@H](OC(CC)CC)[C@H](NC(C)=O)[C@@H](N)C1 [OSELTAMIVIR PHOSPHATE] | – | IC50 (Neuraminidase): 0.8 µM
7 | COc1cc2oc3cc(O)c(O)cc3c(=O)c2c(O)c1[C@@H]1O[C@H](CO)[C@@H](O)[C@H](O)[C@H]1O | 13.3% | –
8 | O=C(OC[C@H]1O[C@@H](OC(=O)c2cc(O)c(O)c(O)c2)[C@H](OC(=O)c2cc(O)c(O)c(O)c2)[C@@H](OC(=O)c2cc(O)c(O)c(O)c2)[C@@H]1OC(=O)c1cc(O)c(O)c(O)c1)c1cc(O)c(O)c(O)c1 [PENTAGALLOYL GLUCOSE] | 100% | IC50 (Neuraminidase): 11.9 µM; IC50 (Genome polyprotein): 1.1 µM; IC50 (HepG2): 92.4 µM; IC50 (HeLa): 356 µM
9 | O=C(OC(=O)c1ccc(O)c(O)c1)c1ccc(O)c(O)c1 | inactive | –
10 | COc1cc(O)c(C(=O)c2ccc(O)cc2)c(O)c1[C@@H]1O[C@H](CO)[C@@H](O)[C@H](O)[C@H]1OC(=O)c1ccc(O)cc1 | 27.2% | –
11 | COc1cc(O)c(C(=O)c2ccc(O)cc2)c(O)c1[C@@H]1O[C@H](CO)[C@@H](O)[C@H](O)[C@H]1O | 17.5% | –
12 | O=C(O[C@@H]1C[C@](O)(C(=O)O)C[C@@H](O)[C@H]1O)c1cc(O)c(O)c(O)c1 | 29.8% | –
13 | O=c1c2cc(O)c(O)cc2oc2c(-c3c(O)c([C@@H]4O[C@H](CO)[C@@H](O)[C@H](O)[C@H]4O)c(O)c4c(=O)c5cc(O)c(O)cc5oc34)c(O)c([C@@H]3O[C@H](CO)[C@@H](O)[C@H](O)[C@H]3O)c(O)c12 | 46.1% | –
14 | COc1cc(O)c(C(=O)c2ccc(O)cc2)c(O[C@@H]2O[C@H](CO)[C@@H](O)[C@H](O)[C@H]2O)c1 | inactive | –
15 | O=C(OC[C@H]1O[C@@H](O)[C@H](OC(=O)c2cc(O)c(O)c(O)c2)[C@@H](OC(=O)c2cc(O)c(O)c(O)c2)[C@@H]1OC(=O)c1cc(O)c(O)c(O)c1)c1cc(O)c(O)c(O)c1 | 100% | IC50 (Neuraminidase): 9.2 µM; IC50 (Genome polyprotein): 2 µM; IC50 (HepG2): 151 µM; IC50 (HeLa): 240 µM
